Source: patent publication US7612200B2, “Inhibitors of protein kinases” (Locus Pharmaceuticals, Inc., priority 2004, dated 2009)

How the values were obtained:
[1] = target: Lyn (Homo sapiens, UniProt P07948); assay: Lyn Kinase Activity; type: biochemical; settings: compound at 2 μm
Method: Lyn Kinase Activity: In a final reaction volume of 25 μl, Lyn (h) (5-10 mU) is incubated with 50 mM Tris pH 7.5, 0.1 mM EGTA, 0.1 mM Na3VO4, 0.1% β-mercaptoethanol, 0.1 mg/ml poly(Glue, Tyr) 4:1, 10 mM MgAcetate and [γ-^33P-ATP] (specific activity approx. 500 cpm/pmol, concentration as required). The reaction is initiated by the addition of the MgATP mix. After incubation for 40 minutes at room temperature, the reaction is stopped by the addition of 5 μl of a 3% phosphoric acid solution. 10 μl of the reaction is then spotted onto a Filtermat A and washed three times for 5 minutes in 75 mM phosphoric acid and once in methanol prior to drying and scintillation counting.

[2] = target: Ret (Homo sapiens, UniProt P07949); assay: Protein kinase inhibition, Ret; type: biochemical; settings: Rate (μM) 2, read-out: % Control
Sequence of Ret (P07949 29-1114): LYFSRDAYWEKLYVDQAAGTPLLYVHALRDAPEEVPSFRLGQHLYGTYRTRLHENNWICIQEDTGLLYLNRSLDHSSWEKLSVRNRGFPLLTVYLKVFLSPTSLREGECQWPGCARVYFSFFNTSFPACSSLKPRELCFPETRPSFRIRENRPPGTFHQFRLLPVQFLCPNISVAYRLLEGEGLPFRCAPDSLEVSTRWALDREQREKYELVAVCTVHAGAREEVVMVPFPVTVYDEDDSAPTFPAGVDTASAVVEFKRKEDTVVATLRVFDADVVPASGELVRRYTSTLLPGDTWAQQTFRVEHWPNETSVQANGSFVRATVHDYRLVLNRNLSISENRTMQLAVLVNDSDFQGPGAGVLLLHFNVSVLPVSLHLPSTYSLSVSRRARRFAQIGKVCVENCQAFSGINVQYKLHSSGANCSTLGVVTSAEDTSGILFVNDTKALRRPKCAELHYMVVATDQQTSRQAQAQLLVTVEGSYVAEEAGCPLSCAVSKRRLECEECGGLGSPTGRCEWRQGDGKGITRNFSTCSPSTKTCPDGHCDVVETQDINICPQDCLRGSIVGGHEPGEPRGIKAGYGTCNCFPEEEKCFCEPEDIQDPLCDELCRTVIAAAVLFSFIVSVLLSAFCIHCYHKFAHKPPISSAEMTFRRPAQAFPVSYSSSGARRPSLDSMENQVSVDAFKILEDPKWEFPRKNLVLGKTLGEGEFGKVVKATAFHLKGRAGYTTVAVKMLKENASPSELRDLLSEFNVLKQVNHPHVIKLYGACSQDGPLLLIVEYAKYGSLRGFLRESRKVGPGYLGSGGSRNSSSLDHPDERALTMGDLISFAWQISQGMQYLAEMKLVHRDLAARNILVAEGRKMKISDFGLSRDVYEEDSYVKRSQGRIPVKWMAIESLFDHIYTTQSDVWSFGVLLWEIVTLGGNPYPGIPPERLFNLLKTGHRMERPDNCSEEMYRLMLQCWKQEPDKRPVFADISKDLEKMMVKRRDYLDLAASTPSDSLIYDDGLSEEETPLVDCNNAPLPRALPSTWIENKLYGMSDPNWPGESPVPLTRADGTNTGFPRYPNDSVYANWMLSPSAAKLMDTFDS

[3] = target: FGFR2 (Homo sapiens, UniProt P21802); assay: Protein kinase inhibition, FGFR2; type: biochemical; settings: Rate (μM) 2, read-out: % Control
Sequence of FGFR2 (P21802 22-821): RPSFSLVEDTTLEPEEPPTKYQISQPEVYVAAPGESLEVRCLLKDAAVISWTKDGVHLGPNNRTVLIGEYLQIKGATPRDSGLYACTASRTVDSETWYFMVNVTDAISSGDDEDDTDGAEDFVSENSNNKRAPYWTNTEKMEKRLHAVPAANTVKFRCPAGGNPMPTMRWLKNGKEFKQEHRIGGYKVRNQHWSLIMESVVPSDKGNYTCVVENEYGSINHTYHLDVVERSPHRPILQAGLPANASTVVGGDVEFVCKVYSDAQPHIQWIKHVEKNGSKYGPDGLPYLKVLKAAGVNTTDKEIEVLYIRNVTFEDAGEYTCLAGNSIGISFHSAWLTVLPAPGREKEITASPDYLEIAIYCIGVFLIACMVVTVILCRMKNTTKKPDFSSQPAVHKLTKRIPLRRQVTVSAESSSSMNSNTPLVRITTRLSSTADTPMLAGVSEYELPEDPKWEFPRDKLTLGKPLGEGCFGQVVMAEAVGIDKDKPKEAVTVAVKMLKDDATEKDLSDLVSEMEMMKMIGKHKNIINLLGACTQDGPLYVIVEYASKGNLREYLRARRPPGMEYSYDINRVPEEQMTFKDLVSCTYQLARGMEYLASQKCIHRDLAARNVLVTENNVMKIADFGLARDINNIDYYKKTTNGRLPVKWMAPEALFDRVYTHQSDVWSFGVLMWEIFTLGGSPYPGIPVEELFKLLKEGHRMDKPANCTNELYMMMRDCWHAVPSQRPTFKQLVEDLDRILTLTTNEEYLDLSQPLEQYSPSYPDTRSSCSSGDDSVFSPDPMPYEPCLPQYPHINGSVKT

[4] = target: T1, EphB4 (Homo sapiens, UniProt P54760); assay: Kinase activity at ATP Km,app, EphB4; type: biochemical; settings: 40 min, compound 2 μM
T1 sequence (P54760 16-987): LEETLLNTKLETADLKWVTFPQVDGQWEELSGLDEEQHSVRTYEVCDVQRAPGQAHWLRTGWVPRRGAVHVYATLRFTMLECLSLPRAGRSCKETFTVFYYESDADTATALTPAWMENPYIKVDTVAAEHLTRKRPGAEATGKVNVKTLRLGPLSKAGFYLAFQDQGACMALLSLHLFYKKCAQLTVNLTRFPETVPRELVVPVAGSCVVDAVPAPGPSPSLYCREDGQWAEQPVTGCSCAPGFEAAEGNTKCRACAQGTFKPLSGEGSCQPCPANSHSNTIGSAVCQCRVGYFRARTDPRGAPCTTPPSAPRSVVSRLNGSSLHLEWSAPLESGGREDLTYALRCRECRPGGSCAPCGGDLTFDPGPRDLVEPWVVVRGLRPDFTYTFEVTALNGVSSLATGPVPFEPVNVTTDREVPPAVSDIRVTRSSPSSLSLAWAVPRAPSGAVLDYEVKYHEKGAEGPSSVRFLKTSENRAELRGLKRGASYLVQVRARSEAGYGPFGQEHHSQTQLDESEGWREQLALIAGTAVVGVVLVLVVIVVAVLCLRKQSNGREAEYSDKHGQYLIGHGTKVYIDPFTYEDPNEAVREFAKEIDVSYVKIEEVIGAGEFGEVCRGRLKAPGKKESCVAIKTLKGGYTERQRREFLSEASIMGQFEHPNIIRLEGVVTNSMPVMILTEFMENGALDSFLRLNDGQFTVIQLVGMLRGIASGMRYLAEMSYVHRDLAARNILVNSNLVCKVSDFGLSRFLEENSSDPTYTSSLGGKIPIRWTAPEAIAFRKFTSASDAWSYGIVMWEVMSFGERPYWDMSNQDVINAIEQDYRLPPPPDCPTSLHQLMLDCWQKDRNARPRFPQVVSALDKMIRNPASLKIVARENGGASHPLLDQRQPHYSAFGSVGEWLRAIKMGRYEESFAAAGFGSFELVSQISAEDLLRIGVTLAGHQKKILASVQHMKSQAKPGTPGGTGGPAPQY
Method: (§1) EphB4 Kinase Activity: In a final reaction volume of 25 μl, EphB4 (h) (5-10 mU) is incubated with 8 mM MOPS pH 7.0, 0.2 mM EDTA, 10 mM MnCl2, 0.1 mg/ml poly(Glue, Tyr) 4:1, 10 mM MgAcetate and [γ-^33P-ATP] (specific activity approx. 500 cpm/pmol, concentration as required). The reaction is initiated by the addition of the MgATP mix. After incubatin for 40 minutes at room temperature, the reaction is stopped by the addition of 5 μl of a 3% phosphoric acid solution. 10 μl of the reaction is then spotted onto a Filtermat A and washed three times for 5 minutes in 75 mM phosphoric acid and once in methanol prior to drying and scintillating counting.

[5] = target: PDGFR-beta (Homo sapiens, UniProt P09619); assay: Kinase activity at ATP Km,app, PDGFR-beta; type: biochemical; settings: 40 min, compound 2 μM
Sequence of PDGFR-beta (P09619 33-1106): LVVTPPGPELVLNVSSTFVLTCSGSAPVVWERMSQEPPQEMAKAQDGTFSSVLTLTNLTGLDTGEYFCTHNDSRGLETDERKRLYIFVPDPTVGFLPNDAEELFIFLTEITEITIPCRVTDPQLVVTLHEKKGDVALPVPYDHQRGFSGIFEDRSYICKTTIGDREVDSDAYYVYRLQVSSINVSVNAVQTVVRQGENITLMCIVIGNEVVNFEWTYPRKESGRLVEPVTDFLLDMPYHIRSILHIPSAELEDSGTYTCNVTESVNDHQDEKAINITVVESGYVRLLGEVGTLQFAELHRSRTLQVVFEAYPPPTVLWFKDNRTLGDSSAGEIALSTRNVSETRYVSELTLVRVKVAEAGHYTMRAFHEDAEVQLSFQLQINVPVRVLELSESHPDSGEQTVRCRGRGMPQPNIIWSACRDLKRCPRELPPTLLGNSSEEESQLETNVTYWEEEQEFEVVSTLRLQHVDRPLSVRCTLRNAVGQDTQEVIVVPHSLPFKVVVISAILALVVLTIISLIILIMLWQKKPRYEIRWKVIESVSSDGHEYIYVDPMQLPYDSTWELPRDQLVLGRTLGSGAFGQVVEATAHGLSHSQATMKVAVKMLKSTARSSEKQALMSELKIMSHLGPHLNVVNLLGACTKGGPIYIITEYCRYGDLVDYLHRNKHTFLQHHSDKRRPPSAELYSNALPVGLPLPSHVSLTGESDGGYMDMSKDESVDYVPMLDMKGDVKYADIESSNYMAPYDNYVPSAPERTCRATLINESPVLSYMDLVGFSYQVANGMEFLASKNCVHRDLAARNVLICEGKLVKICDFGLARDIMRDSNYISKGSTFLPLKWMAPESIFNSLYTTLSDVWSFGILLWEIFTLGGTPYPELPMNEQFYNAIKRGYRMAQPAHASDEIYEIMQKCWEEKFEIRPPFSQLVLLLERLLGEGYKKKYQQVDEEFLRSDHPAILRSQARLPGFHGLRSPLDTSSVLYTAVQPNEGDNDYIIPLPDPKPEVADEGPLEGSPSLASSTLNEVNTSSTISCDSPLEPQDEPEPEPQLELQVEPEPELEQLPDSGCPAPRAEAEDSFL
Method: as §1, with “PDGFRβ” for “EphB4”, “7.0” for “7.0,”, “EDTA, 0.1 mg/ml poly(Glu, Tyr) 4:1,” for “EDTA,”, “MnCl2,” for “MnCl2, 0.1 mg/ml poly(Glue, Tyr) 4:1,”, “incubation” for “incubatin”, “scintillation” for “scintillating”

[6] = target: EGFR (Homo sapiens, UniProt P00533); assay: Kinase activity at ATP Km,app, EGFR; type: biochemical; settings: compound 2 μM
Sequence of EGFR (P00533 25-1210, species assumed): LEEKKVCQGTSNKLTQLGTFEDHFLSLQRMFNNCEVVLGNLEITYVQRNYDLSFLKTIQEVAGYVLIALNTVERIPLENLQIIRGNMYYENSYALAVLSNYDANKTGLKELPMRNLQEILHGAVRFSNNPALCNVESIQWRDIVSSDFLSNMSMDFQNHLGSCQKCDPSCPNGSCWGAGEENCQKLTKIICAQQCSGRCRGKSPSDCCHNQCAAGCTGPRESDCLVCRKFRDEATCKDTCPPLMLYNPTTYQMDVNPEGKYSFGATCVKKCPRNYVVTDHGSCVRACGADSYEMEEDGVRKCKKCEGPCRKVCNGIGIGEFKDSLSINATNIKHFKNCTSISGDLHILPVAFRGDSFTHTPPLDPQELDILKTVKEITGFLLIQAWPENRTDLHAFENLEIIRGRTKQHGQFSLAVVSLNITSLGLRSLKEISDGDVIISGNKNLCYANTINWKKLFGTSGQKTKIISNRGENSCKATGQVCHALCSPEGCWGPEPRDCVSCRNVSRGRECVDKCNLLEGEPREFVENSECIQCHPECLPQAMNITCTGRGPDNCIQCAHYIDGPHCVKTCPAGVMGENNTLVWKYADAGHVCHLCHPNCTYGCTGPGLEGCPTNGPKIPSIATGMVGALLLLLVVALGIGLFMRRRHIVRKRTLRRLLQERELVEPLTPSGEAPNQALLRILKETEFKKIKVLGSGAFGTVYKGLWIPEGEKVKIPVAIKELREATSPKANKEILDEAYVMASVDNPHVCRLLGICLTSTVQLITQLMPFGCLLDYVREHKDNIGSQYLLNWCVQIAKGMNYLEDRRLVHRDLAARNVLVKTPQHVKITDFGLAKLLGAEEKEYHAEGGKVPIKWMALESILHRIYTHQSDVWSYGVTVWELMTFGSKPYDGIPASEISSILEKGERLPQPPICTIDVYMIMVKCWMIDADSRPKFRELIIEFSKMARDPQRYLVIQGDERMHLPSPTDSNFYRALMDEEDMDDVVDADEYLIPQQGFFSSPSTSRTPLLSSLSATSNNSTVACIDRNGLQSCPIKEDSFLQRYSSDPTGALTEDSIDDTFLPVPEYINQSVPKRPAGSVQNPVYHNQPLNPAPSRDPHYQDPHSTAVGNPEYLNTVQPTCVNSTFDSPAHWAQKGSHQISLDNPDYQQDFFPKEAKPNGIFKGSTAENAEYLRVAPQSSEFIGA

[7] = test system: U266; assay: Cell growth inhibition, U266; type: cell-based; settings: Homo sapiens, U-266; U266 cell line; 24 hours; viability by WST-1 or Alamar Blue
Method: (§2) The compounds of Examples 1 and 2 were also tested for cell growth inhibition activity a gains two cell lines, MCF-7 and U266. […], suspended in RPMI 1640 media, supplemented with 10% FBS, were pipetted into 96-well plates at a density of 10,000 cells per milliliter in a volume of […] per well. Cells were allowed to equilibrate overnight at 37 C in 5% CO2. Cells were then incubated in the presence of the test compound at a concentrations ranging from 0.03 μM to 10 μM (at ½ log dilutions) for 24 hours. After the incubation period, cells were assessed for viability using either WST-1 (Biovision) or Alamar Blue (BioSourse). Values from treated cells were compared to values from control cells and values expressed as percent control.

[8] = test system: MCF-7; assay: Cell growth inhibition, MCF-7; type: cell-based; settings: Homo sapiens, MCF7; MCF-7 cell line; 24 hours; viability by WST-1 or Alamar Blue
Method: as §2

Sequence of Lyn (P07948 whole entry): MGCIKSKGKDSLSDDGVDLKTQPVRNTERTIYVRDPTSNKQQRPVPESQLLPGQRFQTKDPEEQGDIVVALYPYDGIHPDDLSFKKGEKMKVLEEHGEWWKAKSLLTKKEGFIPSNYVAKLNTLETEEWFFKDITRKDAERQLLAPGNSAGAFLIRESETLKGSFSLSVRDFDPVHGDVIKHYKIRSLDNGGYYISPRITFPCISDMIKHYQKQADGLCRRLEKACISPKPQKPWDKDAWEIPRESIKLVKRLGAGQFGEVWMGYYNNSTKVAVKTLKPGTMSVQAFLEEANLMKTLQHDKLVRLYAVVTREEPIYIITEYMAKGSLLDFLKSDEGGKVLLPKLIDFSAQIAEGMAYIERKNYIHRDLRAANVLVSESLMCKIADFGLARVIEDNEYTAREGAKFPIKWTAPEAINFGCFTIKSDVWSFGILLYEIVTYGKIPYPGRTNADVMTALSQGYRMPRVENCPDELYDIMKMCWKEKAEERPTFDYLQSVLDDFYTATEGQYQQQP

% Inhibition at 2 μm [1] | remaining activity at 2 µM [2] | remaining activity at 2 µM [3] | inhibition at 2 µM [4] | inhibition at 2 µM [5] | % Inhibition at ATP Km,app [6] | IC50 [7] | IC50 [8] | Structure (SMILES)
76-100% | 76 to 100% | 51 to 75% | – | – | – | – | – | CC(C)(C)c1cc(C(=O)N2CCS(=O)(=O)CC2)c(NC(=O)Nc2ccc(Oc3ccncc3)cc2)s1 [Example 3, 1-[5-tert-Butyl-3-(1,1-dioxo-1λ^6-thiomorpholine-4-carbonyl)thiophen-2-yl]-3-[4-(pyridin-4-yloxy)phenyl]urea]
– | – | – | 76 to 100% | 26 to 50% | 0-25% | – | – | CC(C)(C)c1cc(C(=O)N2CCNC(=O)CC2)c(NC(=O)Nc2ccc(Oc3ccncc3)cc2)s1 [Example 4, 1-(5-tert-Butyl-3-(5-oxo-[1,4]diazepane-1-carbonyl)thiophen-2-yl)-3-(4-(pyridin-4-yloxy)phenyl)urea]
– | – | – | 76 to 100% | 26 to 50% | 0-25% | < 10 µM | < 10 µM | CC(C)(C)c1cc(C(=O)N2CCNC(=O)C2)c(NC(=O)Nc2ccc(Oc3ccncc3)cc2)s1 [Example 2, 1-(5-tert-Butyl-3-(3-oxo-piperazine-1-carbonyl)thiophen-2-yl)-3-(4-(pyridin-4-yloxy)phenyl)urea]
– | – | – | 76 to 100% | 26 to 50% | 0-25% | < 10 µM | < 10 µM | CC(C)(C)c1cc(C(=O)N2CCNS(=O)(=O)CC2)c(NC(=O)Nc2ccc(Oc3ccncc3)cc2)s1 [Example 1, 1-(5-tert-Butyl-3-(1,1-dioxo-1λ^6-[1,2,5]thiadiazepane-5-carbonyl)thiophen-2-yl)-3-(4-(pyridin-4-yloxy)phenyl)urea]
